Results taken from patent US10889847B2, “Kit and discs for use in disc diffusion antibiotic sensitivity testing” (YISSUM RESEARCH DEVELOPMENT COMPANY OF THE HEBREW …, priority 2015, dated 2021).

How the values were obtained:
[1] = tested on: E. coli clinical strain W574; assay: Tolerance Diffusion test (TDtest), strain W574; assay type: cell-based; conditions: ertapenem disk (0.25 microgram), glucose disk in step II
Procedure: (§1) 2 Disc Test (TDtest) Procedure
(§2) The TDtest consists of two steps:
(§3) Step I—Incubation with Antibiotics:
(§4) Circa 10^7 bacteria at stationary phase (100 microliter) were plated on LBL nutrient agar plate. An antibiotic disc was placed on the agar. The plate with the antibiotic disc was incubated for at least 4 hours and up to 30 hours, preferably about 18 hours at 37° C.
(§5) The amount of antibiotics in each disk was adjusted to reach a concentration below the MIC in the inhibition zone after an overnight incubation at 37° C. Many commercial disks contain antibiotics in amounts that are too high for the concentration to fall below the MIC after this time. When this was the case, custom disks were prepared as specified herein below.
(§6) Step II—Incubation with Nutrient:
(§7) This step was carried out in one of the following protocols:
(§8) a. The antibiotic disk was replaced with a nutrient (i.e. 2 mg glucose) disk at the end of the antibiotic incubation time. The plate was incubated again for an additional overnight (at least 5 hours and up to 24 hours, preferably about 18 hours) at 37° C.
(§9) b. Nutrient solution (i.e., 2 mg glucose, or 5 microliter of 40% glucose solution) was added directly on the antibiotic disk, instead of replacing it.
(§10) c. Two phases disk was prepared, by impregnating 6 mg glucose on the upper side of the disk.
(§11) After the completion of the above steps, the growth of the bacteria was visually inspected.

[2] = tested on: E. coli strains W574 and U453; assay: Survival fraction in liquid culture, W574 versus U453; assay type: cell-based; conditions: ertapenem 10 microgram/ml
Procedure: (§12) Overnight bacterial cultures were diluted 1:100 in fresh medium containing antibiotic and incubated at 37° C. for designated time. Bacterial survival was determined by the most probable number-counting method (MPN), as described in Hurley, M. A. & Roscoe, M. E. Automated Statistical-Analysis of Microbial Enumeration by Dilution Series. J Appl. Bacteriol. 55:159-164 (1983).

E. coli strain U453 = assay: MIC, strain U453; assay type: cell-based; conditions: Escherichia coli
[3] = at 12 hours after 1 gram dosing; cited from earlier work
[4] = tested on: E. coli clinical strain U453; assay: Tolerance Diffusion test (TDtest), strain U453; assay type: cell-based; conditions: ertapenem disk (0.25 microgram), glucose disk in step II
Procedure: as §1, §2, §3, §4, §5, §6, §7, §8, §9, §10, §11

E. coli strain W574 = assay: MIC, strain W574; assay type: cell-based; conditions: Escherichia coli
tbl3a = assay: Time-kill experiment in liquid culture, tbl3a; assay type: cell-based, E. coli; conditions: for fraction of survivals: antibiotic 100 microgram/ml, after 2.6 hours
Procedure: as §12
These findings were verified by measuring the survival of tbl3a in liquid culture after exposure to the two antibiotics. An overnight culture was diluted and exposed either to ampicillin (100 microgram/ml) or kanamycin (100 microgram/ml). […] The large fraction of survivals in Ampicillin (12% after 2.6 hours) was predicted by the late colonies appearance, and is absent in Kanamycin (1.4E-8% after 2.6 hours).

[5] = tested on: E. cloacae clinical strain B340; assay: Tolerance Diffusion test (TDtest), strain B340; assay type: cell-based; conditions: ampicillin disk replaced with glucose disk after 18 hours, read at 36 hours
Procedure: as §1, §2, §3, §4, §5, §6, §7, §8, §9, §10
After the completion of the above steps, the growth of the bacteria was visually inspected. […]

many species = conditions: in many species; cited from earlier work
[6] = tested on: E. coli tolerant strain tbl3a; assay: Tolerance Diffusion test (TDtest), strain tbl3a; assay type: cell-based
Procedure: as §1, §2, §3, §4, §5, §6, §7, §8
b. […]
Tolerant bacteria are identified by the use of two different TDtest methods, the two-disks TDtest and the single disk TDtest. […] The growth of the bacterium was monitored at several time points (0, 8, 17, 30 and 36 hours from the beginning of the test).

tbl5a = assay: Tolerance Diffusion test (TDtest), strain tbl5a, three growth media; assay type: cell-based, E. coli; conditions: after second step, LB agar, Mueller-Hinton agar, Mueller-Hinton+5% Blood agar
Procedure: FIG. 13A-13C show TDtest performed on three different growth media. The results are shown after the second step of TDtest examining the effect of ampicillin on tbl5a.
FIG. 13A is a LB agar plate.
FIG. 13B is a Mueller-Hinton agar plate.
FIG. 13C is a Mueller-Hinton+5% Blood agar plate.
as §1, §2, §3, §4, §5, §6, §7, §8
b. […]

MIC (E. coli strain U453)	MIC (E. coli strain W574)	SMILES	tolerance level by TDtest (colonies inside the inhibition zone after step II) [1]	fraction of survival of a liquid culture, W574 versus U453 [2]	mean serum concentration [3]	tolerance level by TDtest (colonies inside the inhibition zone after step II) [4]	fraction of survivals (tbl3a)	tolerance by TDtest (colonies in inhibition zone) [5]	MIC (many species)	bacterial colonies in TDtest plate ([6]; after 36 hours, two-disks TDtest (glucose disk after 18 hours) or single disk TDtest)	tolerance by TDtest ([6]; ampicillin 10 microgram or kanamycin 15 microgram disk)	survival fraction under ampicillin relative to kanamycin (tbl3a; 100 microgram/ml each)	tolerance level by TDtest (tbl5a)
< 0.05 µg/mL	< 0.05 µg/mL	C[C@@H](O)[C@H]1C(=O)N2C(C(=O)O)=C(S[C@@H]3CN[C@H](C(=O)Nc4cccc(C(=O)O)c4)C3)[C@H](C)[C@H]12 [ertapenem]	high tolerance	higher tolerance	~10 microgram/ml	low tolerance	–	–	–	–	–	–	–
–	–	NC[C@H]1O[C@H](O[C@H]2[C@H](O)[C@@H](O[C@H]3O[C@H](CO)[C@@H](O)[C@H](N)[C@H]3O)[C@H](N)C[C@@H]2N)[C@H](O)[C@@H](O)[C@@H]1O [kanamycin]	–	–	–	–	1.4E-8%	–	–	–	–	–	–
–	–	CC1(C)S[C@@H]2[C@H](NC(=O)[C@H](N)c3ccccc3)C(=O)N2[C@H]1C(=O)O [ampicillin]	–	–	–	–	12%	tolerant	around 4 microgram/ml	bacterial colonies are well seen	very tolerant	three orders of magnitude lower	medium tolerance (“medium tolerance” is 10 to a few hundred colonies in the inhibition zone)
